The results in this text go back to patent publication US20210130291A1, “METHODS FOR TREATING DIABETES USING VDAC1 INHIBITORS” (THE NATIONAL INSTITUTE FOR BIOTECHNOLOGY IN THE NEGEV LTD., priority 2016, published 2021).

Structures are written as SMILES.

The subject of assay [1] is db/db mice. Briefly: Daily i.p. injection of VBIT-4 in db/db and C57/BL mice (blood glucose, IPGTT). Format: in vivo, mouse. As to the method: 5 weeks old db/db mice and control (C57/bl) (Janvier Laboratory, France), weighing 18-25 g, were used throughout the experiments. They were given a standard pellet diet (B&K) and tap water ad libitum. The experimental procedures were approved by the Ethics Committee for Animal Research at Lund University. Isolation of pancreatic islets was performed by retrograde injection of a collagenase solution via the bile-pancreatic duct and islets were then collected under a stereomicroscope at room temperature.
IPGTTs were performed in db/db and c57/bl mice after treatment with VDAC1 blocker (daily intraperitoneal injection with VBIT-4, […]) for 5 weeks. Prior to IPGTT test, the mice were fasted for 4 h. Glucose was dissolved in 0.9% NaCl and 2.0 g glucose/kg body weight was injected intraperitoneally. Serial blood sampling thereafter from vena saphena was performed at 0, 5, 15, 30 and 90 min as previously described elsewhere 35. Blood glucose was analyzed using glucose oxidase method and plasma insulin was analyzed by ELISA (Salehi, A. et al. 2008. PLoS ONE 3, e2165; Rosengren, A. H. et al. 2010. Science 327, 217-220). Total volume load was 0.3 ml. The Cumulative (area under the curve) changes in plasma glucose or insulin were calculated by subtracting the recorded values from basal (time 0).

The test system of assay [2] is VDAC1 in islets from T2D donors. As to the kind of experiment: VDAC1 expression and localization in islets of T2D donors with documented metformin therapy. Further details: species or system human.
Protocol: Donors were grouped according to HbA1c i.e. less than 6% (ND), between 6% and 6.5% (IGT), higher than 6.5% or history of diabetes (T2D). […] The islets were then hand-picked under stereomicroscope prior to use. […] Total RNA from handpicked mouse islets, human donor islets (Diabetic and non-diabetic) or [MUT] cells were extracted using RNAeasy (Qiagen, Hilden, Germany). […] Concentration and purity of total RNA was measured with a NanoDrop ND-1000 spectrophotometer (A260/A280>1.9 and A260/A230>1.4) (NanoDrop Technologies, Wilmington, Del.) and RNA Quality Indicator (RQI) higher than 8.0 (Experion Automated Electrophoresis, Bio-Rad, USA) was considered to be high-quality total RNA preparations. […] The qPCR was carried out as follows: 50° C. for 2 minutes, 95° C. for 10 minutes, 40 cycles of 95° C. for 15 seconds, and 60° C. for 1 minute. […] Isolated human or mouse islets as well as INS-1 cells were seeded on the glass-bottom dish cultured overnight. […] Primary antibodies against mouse VDAC1 (Abcam), goat VDAC2 (Abcam) and Guinea pig insulin (Eurodiagnostica) were diluted in blocking buffer and incubated overnight at 4° C. Immunoreactivity was quantified using fluorescently labeled secondary antibodies (1:200) and visualized by confocal microscopy (Carl Zeiss, Germany). The ratio is calculated by mean intensity of plasma membrane to mean intensity in cytosol, according to the formula:
Assay [3] concerns the target VDAC1 (Rattus norvegicus, UniProt Q9Z2L0). Briefly: Channel conductance of VDAC1 reconstituted in planar lipid bilayer.

VDAC1, sequence (Q9Z2L0 whole entry): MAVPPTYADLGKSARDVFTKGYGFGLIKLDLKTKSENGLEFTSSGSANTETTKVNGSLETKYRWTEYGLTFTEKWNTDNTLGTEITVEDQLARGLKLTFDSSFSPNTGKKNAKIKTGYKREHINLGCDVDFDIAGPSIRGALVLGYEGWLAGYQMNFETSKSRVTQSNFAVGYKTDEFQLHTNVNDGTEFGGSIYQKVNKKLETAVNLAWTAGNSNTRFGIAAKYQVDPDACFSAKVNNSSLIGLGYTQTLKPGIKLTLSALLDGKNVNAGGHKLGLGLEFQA

In the case of `O=C(CC(CO)N1CCN(c2ccc(OC(F)(F)F)cc2)CC1)Nc1ccc(Cl)cc1` (racemic) [VBIT-4, N-(4-chlorophenyl)-4-hydroxy-3-(4-(4-(trifluoromethoxy)phenyl)-piperazin-1-yl)butanamide], the “effects in animals with severe diabetes” value in assay [1] (14-week old db/db animals with severe diabetes, data not shown) was “only marginal effects”. Moreover, in assay [1] (C57/BL mice, daily i.p. VBIT-4 from age 6 to 11 weeks), the “effects in control mice” value is listed as “no effects”. For the same compound, the “glucose tolerance (IPGTT, 2 g/kg)” value in assay [1] (db/db mice after 5 weeks VBIT-4 i.p. (FIG. 7g, 7h)) was “markedly improved”. Besides, the “GSIS in vivo and in isolated islets” value in assay [1] (db/db mice after 5 weeks VBIT-4 i.p. (FIG. 7i, 7k, 7l)) is listed as “markedly improved”. The “blood glucose concentrations upon VBIT-4 cessation” value in assay [1] (db/db mice followed after 5 weeks treatment (FIG. 7f)) was “rose gradually over several weeks”. Moreover, the “development of hyperglycemia (blood glucose)” value in assay [1] (db/db mice, daily i.p. 25 mg/kg from age 6 to 11 weeks, vs vehicle (FIG. 7f)) is recorded as “prevented the development of the severe hyperglycemia”. Also, the “water consumption and urine production” value in assay [1] (db/db mice, early administration, data not shown) was “prevented increases in water consumption and urine production”.
`CN(C)C(=N)N=C(N)N` [metformin]: in assay [2] (islets from T2D donors with documented metformin therapy (n=4)), the “islet VDAC1 mRNA” value is listed as “did not display elevated VDAC1 mRNA”. In addition, in assay [2] (single examined T2D donor with documented metformin therapy (FIG. 3a, 3b)), the “VDAC1 localization in β-cells” value was “remained intracellular”. Further, the “conductance of VDAC1 reconstituted into a planar lipid bilayer” value in assay [3] (metformin 30 μM, 10-30 min after addition (FIG. 4g)) was “blocks conductance”. Besides, in assay [3] (read-out: inhibition of channel conductance), the inhibition at 30 µM was determined as 50%.
